Source: PMC3914206

Columns and labels:
panel of 442 kinases [1] = biological target: T1, panel of 442 kinases (Homo sapiens, UniProt Q9P2K8, S808G); assay type: binding; settings: Compound Concentration 10 µM
T1 construct: purchased KINOMEscan
Description: (§1) We assessed the selectivity of members of this scaffold using the KINOMEscan methodology across a near comprehensive panel of 442 kinases [[18,27]].

panel of 442 kinases [2] = biological target: T2, panel of 442 kinases (Homo sapiens, UniProt Q9H422); assay type: binding; settings: Compound Concentration 10 µM
T2 construct: purchased KINOMEscan
Description: as §1

T2 sequence (Q9H422 whole entry): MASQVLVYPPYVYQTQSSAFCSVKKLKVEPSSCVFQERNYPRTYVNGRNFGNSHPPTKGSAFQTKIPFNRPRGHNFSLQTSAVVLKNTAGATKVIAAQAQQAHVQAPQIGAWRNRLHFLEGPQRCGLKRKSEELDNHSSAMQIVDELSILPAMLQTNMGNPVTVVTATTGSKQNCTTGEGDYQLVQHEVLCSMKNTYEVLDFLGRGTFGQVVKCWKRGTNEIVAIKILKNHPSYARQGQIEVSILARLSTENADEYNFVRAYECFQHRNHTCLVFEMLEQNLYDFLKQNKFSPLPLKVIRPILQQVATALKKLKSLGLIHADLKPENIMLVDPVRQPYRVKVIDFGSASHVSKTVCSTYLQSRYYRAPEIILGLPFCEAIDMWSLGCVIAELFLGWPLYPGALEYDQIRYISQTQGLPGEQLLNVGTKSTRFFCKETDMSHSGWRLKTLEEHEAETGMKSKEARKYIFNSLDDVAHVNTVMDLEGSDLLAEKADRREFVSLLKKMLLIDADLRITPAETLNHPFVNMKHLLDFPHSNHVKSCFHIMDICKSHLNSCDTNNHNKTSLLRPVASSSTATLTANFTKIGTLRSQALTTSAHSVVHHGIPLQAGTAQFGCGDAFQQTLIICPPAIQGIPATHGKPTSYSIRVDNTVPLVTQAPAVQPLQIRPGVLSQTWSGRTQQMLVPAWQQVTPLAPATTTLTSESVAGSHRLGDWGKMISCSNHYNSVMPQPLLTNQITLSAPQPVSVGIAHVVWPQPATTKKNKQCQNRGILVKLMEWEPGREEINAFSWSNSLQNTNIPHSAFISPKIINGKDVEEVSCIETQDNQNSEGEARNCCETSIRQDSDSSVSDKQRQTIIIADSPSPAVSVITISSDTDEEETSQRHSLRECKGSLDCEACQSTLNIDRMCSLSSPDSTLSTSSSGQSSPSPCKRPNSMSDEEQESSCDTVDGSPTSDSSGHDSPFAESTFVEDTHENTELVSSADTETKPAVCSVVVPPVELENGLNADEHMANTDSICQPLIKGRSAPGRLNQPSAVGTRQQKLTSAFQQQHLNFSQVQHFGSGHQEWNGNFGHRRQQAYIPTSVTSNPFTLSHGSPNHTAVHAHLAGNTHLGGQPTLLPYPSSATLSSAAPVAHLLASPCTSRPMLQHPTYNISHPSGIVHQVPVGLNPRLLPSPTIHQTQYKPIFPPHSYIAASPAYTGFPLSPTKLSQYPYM
T1 sequence (Q9P2K8 whole entry S808G): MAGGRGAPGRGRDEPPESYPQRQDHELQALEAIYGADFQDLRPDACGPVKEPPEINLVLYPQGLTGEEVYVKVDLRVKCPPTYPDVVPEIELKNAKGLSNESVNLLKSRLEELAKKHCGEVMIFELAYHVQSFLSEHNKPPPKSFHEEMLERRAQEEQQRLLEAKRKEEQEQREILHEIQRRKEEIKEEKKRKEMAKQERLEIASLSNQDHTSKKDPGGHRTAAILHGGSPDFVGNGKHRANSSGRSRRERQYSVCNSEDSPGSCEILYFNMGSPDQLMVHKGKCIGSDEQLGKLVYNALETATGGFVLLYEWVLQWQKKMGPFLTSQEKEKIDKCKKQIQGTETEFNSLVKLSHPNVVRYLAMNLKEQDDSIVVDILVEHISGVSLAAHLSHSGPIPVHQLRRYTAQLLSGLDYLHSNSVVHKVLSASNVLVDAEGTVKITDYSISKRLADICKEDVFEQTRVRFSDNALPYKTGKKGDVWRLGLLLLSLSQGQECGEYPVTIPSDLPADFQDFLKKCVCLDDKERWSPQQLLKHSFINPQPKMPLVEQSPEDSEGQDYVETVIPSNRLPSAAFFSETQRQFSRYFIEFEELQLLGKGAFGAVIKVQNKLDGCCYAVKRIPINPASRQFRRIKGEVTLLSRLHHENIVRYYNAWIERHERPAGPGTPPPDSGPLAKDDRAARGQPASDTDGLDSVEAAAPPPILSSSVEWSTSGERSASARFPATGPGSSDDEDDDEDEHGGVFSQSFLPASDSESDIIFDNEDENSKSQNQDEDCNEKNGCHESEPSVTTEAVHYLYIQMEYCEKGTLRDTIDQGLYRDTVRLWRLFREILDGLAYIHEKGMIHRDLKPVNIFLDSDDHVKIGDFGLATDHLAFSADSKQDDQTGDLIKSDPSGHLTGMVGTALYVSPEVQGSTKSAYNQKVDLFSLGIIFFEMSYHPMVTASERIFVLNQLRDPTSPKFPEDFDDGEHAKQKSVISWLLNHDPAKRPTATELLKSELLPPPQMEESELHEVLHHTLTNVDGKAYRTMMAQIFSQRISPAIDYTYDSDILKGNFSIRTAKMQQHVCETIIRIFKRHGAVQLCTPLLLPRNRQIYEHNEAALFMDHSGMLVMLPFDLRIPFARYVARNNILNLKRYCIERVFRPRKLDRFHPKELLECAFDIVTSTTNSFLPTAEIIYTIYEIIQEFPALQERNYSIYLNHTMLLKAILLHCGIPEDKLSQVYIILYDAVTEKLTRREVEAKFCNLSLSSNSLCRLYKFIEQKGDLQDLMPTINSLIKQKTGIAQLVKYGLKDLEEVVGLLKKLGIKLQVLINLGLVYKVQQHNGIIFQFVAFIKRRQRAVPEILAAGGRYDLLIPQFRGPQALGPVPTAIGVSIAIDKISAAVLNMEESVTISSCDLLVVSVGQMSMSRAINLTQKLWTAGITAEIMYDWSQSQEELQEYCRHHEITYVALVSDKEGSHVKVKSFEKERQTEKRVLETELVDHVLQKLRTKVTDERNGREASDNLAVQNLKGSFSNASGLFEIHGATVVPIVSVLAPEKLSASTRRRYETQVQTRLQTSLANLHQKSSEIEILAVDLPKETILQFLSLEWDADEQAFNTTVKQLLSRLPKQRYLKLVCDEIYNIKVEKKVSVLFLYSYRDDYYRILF

SMILES	KINOMEscan: GCN2(Kin.Dom.2,S808G) (panel of 442 kinases [1])	KINOMEscan: HIPK3 (panel of 442 kinases [2])
COc1cc(C(=O)N2CCC(N3CCN(C)CC3)CC2)ccc1Nc1ncc2c(n1)N(C)c1ccccc1C(=O)N2C [15 (LRRK2-IN-1)]	95	89
COc1cc(C(=O)N2CCC(N3CCN(C)CC3)CC2)ccc1Nc1ncc2c(n1)N1CCc3cccc(c31)C(=O)N2C [Compound 24]	79	48
COc1cc(C(=O)N2CCC(N3CCN(C)CC3)CC2)ccc1Nc1ncc2c(n1)N(C1CCCC1)c1ccccc1C(=O)N2C [Compound 25, 11-cyclopentyl-2-((2-methoxy-4-(4-(4-methylpiperazin-1-yl)piperidine-1-carbonyl)phenyl)amino)-5-methyl-5H-benzo[e]pyrimido[5,4-b][1,4]diazepin-6(11H)-one]	100	100
CCOc1cc(C(=O)N2CCC(N3CCN(C)CC3)CC2)ccc1Nc1ncc2c(n1)N(C1CCCC1)c1ccccc1C(=O)N2C [Compound 26]	95	92
